According to patent publication US6833456B2, “Indolyl-urea derivatives of thienopyridines useful as antiangiogenic agents, and methods for their use” (Agouron Pharmaceuticals, Inc., priority 2002, dated 2004):
Where “and” joins values, the source holds several entries; their conditions need not be identical. Equal entries are not always repeated.

Columns and labels:
[1] = biological target: T1, KDR (VEGFR2) (Homo sapiens, UniProt P35968); test: KDR (VEGFR2) phosphorylation in PAE-KDR cells assay; format: cell-based; details: PAE cells overexpressing human KDR, VEGF stimulated; read-out: PAE KDR autophos IC50
T1 construct: expressed in transfected cells; host or cells: porcine aorta endothelial (PAE) cells
Outline: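 PAE cells overexpressing human KDR, serum-starved 16 h (0.1% FBS), treated with compound 1 h at 37° C (0.5% DMSO), then stimulated 8 min with 500 ng/ml VEGF plus 2 mM Na3VO4. Lysate KDR phosphotyrosine measured by capture ELISA (anti-pY HRP, 450 nm); IC50 by four-parameter fit.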

[2] = system: HUVEC; test: bFGF HUVEC proliferation; format: cell-based, human; details: bFGF stimulated HUVEC
[3] = biological target: T2, PDGFRβ (Homo sapiens, UniProt P09619); test: PAE-PDGFRβ phosphorylation in PAE-PDGFRB cells assay; format: cell-based; details: PAE cells overexpressing human PDGFRβ, PDGF-BB stimulated; read-out: PAE PDGFR autophos IC50
T2 construct: expressed in transfected cells; host or cells: porcine aorta endothelial (PAE) cells
Outline: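 PAE cells overexpressing human PDGFRβ, serum-starved 16 h (0.1% FBS), compound 1 h at 37° C (0.5% DMSO), then 1 μg/mL PDGF-BB with 2 mM Na3VO4 for 8 min. Receptor captured by anti-PDGFRβ, phosphotyrosine detected by HRP-PY20/TMB at 450 nm; IC50 by four-parameter fit.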

[4] = system: human umbilical vein endothelial cells (HUVEC); test: HUVEC+VEGF proliferation assay; format: cell-based; details: Homo sapiens, HUVEC, 72 h, VEGF 6 ng/mL, MTT
Outline: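 HUVEC (passage 3-4), serum-starved 24 h in F12K + 1% FBS, were pre-treated with compound for 1 h (0.1% DMSO final). They were then stimulated with VEGF at 6 ng/mL final. Proliferation was measured after 72 h by MTT dye reduction (4 h), with absorbance read at 595 nm.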

T2 sequence (P09619 33-1106): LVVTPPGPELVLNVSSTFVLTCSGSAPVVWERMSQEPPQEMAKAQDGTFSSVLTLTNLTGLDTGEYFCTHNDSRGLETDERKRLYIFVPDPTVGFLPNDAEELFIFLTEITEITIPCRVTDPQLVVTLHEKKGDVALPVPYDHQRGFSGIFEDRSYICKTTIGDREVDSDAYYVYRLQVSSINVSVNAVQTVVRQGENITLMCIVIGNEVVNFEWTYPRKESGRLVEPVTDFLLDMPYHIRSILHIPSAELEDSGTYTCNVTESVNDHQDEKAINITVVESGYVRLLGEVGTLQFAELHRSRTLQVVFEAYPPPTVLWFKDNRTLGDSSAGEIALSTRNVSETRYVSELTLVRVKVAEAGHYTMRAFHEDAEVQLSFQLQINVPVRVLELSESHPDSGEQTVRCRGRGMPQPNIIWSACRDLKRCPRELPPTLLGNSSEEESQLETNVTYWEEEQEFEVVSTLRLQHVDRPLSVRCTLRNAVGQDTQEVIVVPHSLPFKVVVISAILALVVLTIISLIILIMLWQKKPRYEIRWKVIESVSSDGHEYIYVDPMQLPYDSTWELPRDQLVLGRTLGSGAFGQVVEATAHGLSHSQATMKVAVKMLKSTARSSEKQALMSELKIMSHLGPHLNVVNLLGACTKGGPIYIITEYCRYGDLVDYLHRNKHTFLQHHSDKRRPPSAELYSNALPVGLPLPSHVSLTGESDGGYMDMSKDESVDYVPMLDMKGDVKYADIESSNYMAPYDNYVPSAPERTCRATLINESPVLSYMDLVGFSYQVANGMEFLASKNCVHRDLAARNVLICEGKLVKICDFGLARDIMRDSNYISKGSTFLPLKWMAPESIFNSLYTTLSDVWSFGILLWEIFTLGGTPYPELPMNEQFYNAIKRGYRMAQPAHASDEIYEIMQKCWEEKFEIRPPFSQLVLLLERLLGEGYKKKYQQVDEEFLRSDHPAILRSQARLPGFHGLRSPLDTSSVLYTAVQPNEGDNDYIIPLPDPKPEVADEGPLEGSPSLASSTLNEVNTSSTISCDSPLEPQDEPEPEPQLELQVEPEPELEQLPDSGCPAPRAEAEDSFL
T1 sequence (P35968 20-1356): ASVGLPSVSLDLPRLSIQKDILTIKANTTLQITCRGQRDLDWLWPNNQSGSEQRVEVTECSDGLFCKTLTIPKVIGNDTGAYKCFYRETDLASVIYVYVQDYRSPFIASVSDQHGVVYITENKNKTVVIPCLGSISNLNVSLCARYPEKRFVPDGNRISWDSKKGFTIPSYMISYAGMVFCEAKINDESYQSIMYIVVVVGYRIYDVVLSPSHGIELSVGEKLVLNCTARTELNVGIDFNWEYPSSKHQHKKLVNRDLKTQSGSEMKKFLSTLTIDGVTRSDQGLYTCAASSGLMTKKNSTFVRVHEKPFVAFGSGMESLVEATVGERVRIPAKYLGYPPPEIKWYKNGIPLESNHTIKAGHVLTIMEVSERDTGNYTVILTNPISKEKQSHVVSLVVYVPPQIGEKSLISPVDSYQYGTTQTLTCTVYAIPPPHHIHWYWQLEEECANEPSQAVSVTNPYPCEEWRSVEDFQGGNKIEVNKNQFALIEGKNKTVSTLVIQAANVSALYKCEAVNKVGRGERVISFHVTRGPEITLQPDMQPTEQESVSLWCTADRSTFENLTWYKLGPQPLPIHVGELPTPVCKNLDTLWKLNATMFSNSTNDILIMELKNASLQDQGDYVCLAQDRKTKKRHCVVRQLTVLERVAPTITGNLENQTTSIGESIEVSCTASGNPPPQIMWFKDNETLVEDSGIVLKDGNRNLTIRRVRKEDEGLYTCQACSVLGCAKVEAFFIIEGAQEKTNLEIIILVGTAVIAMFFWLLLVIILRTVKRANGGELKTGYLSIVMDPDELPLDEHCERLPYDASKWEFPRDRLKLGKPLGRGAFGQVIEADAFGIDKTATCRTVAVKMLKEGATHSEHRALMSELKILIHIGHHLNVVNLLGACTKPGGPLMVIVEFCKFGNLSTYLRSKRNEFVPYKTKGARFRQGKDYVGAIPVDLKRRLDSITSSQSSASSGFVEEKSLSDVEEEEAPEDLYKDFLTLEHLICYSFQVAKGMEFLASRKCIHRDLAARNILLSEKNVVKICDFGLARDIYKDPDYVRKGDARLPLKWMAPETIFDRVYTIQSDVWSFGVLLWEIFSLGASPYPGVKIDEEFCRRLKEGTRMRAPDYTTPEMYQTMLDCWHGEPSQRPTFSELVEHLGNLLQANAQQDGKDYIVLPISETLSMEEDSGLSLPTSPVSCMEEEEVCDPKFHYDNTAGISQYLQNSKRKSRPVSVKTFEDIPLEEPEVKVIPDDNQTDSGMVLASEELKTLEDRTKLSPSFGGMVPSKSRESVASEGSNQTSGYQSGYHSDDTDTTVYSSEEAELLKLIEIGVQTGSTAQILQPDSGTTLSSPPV

Row | Compound | IC50 [1] | IC50 [3] | IC50 ([2]; Homo sapiens, HUVEC) [nM] | IC50 [4] [nM] | IC50 [2] [nM]
1 | COC[C@@H]1CCCN1C(=O)c1cc2nccc(Oc3ccc4c(c3)cc(C)n4C(=O)NC3CC3)c2s1 [Example 4b, 5-(2-[(S)-2-(methoxymethyl)pyrrolidine-1-carbonyl]thieno[3,2-b]pyridin-7-yloxy)-2-methylindole-1-carboxylic acid cyclopropylamide] | 0.21 nM (2×) and 0.25 nM | 22 nM and 24 nM and 23 nM | 11.7 |  | 
2 | Cc1cc2cc(Oc3ccnc4cc(C(=O)N5CC[C@@H](O)C5)sc34)ccc2n1C(=O)NC1CC1 [Example 4p, 5-[2-(3R-Hydroxy-pyrrolidine-1-carbonyl)-thieno[3,2-b]pyridin-7-yloxy]-2-methyl-indole-1-carboxylic acid cyclopropylamide] | 0.22 nM | 4 nM |  | 0.128 | 
3 | C#CCNC(=O)n1c(C)cc2c(F)c(Oc3ccnc4cc(C(=O)N5CCC[C@H]5CO)sc34)ccc21 [Example 5e, 4-Fluoro-5-[2-(2S-hydroxymethyl-pyrrolidine-1-carbonyl)-thieno[3,2-b]pyridin-7-yloxy]-2-methyl-indole-1-carboxylic acid prop-2-ynylamide] | 0.256 nM and 0.52 nM and 0.237 nM | 14.1 nM |  |  | 
4 | CNC(=O)n1c(C)cc2cc(Nc3ccnc4cc(-c5nc(C(C)(C)O)cs5)sc34)ccc21 [Example 3a, 5-{2-[4-(1-Hydroxy-1-methyl-ethyl)-thiazol-2-yl]-thieno[3,2-b]pyridin-7-ylamino}-2-methyl-indole-1-carboxylic acid methylamide] | 0.72 nM and 0.33 nM and 0.35 nM | 84 nM and 99 nM |  | 0.245 | 
5 | COC[C@@H]1CCCN1C(=O)c1cc2nccc(Oc3ccc4c(c3)cc(C)n4C(=O)NCC#CCO)c2s1 [Example 4d, 5-(2-[(S)-2-(methoxymethyl)pyrrolidine-1-carbonyl]thieno[3,2-b]pyridin-7-yloxy)-2-methylindole-1-carboxylic acid (4-hydroxybut-2-ynyl)amide] | 0.37 nM and 0.26 nM and 0.55 nM | 76 nM and 71 nM and 64 nM |  |  | 
6 | Cc1cc2cc(Nc3ccnc4cc(-c5nccn5C)sc34)ccc2n1C(=O)NC1CC1 [Example 2d, 5-(2-[1-methyl-1H-imidazol-2-yl]thieno[3,2-b]pyridin-7-ylamino)-2-methylindole-1-carboxylic acid cyclopropylamide] |  | 11 nM and 25 nM | 34 | 0.15 | 
7 | Cc1cc2cc(Oc3ccnc4cc(C(=O)N5CC[C@H](O)C5)sc34)ccc2n1C(=O)NCCO [Example 9k, 5-[2-(3S-Hydroxy-pyrrolidine-1-carbonyl)-thieno[3,2-b]pyridin-7-yloxy]-2-methyl-indole-1-carboxylic acid (2-hydroxy-ethyl)-amide] | 1 nM | 274 nM |  | 0.49 | 
8 | C#CCNC(=O)n1c(C)c(Cl)c2c(F)c(Oc3ccnc4cc(C(=O)N5CC[C@H](O)C5)sc34)ccc21 [Example 6d, 3-Chloro-4-fluoro-5-[2-(3S-hydroxy-pyrrolidine-1-carbonyl)-thieno[3,2-b]pyridin-7-yloxy]-2-methyl-indole-1-carboxylic acid prop-2-ynylamide] | 0.123 nM and 0.31 nM | 29.1 nM |  |  | 
9 | CNC(=O)n1c(C)cc2c(F)c(Oc3ccnc4cc(C(=O)N5CCC[C@H]5CO)sc34)ccc21 [Example 5n, 4-Fluoro-5-[(2-{[(2S)-2-(hydroxymethyl)pyrrolidin-1-yl]carbonyl}thieno[3,2-b]pyridin-7-yl)oxy]-N,2-dimethyl-1H-indole-1-carboxamide] | 0.28 nM and 0.5 nM and 0.53 nM | 18.2 nM | 93 |  | 
10 | Cc1cc2cc(Nc3ccnc4cc(-c5nc(C(C)(C)O)cs5)sc34)ccc2n1C(=O)NC1CC1 [Example 3b, 5-{2-[4-(1-Hydroxy-1-methyl-ethyl)-thiazol-2-yl]-thieno[3,2-b]pyridin-7-ylamino}-2-methyl-indole-1-carboxylic acid cyclopropylamide] | 0.32 nM and 0.444 nM | 142 nM and 125 nM |  |  | 
11 | C#CCNC(=O)n1c(C)cc2cc(Oc3ccnc4cc(C(=O)N5CCC[C@H]5COC)sc34)ccc21 [Example 4c, 5-(2-[(S)-2-(methoxymethyl)pyrrolidine-1-carbonyl]thieno[3,2-b]pyridin-7-yloxy)-2-methylindole-1-carboxylic acid prop-2-ynylamide] | 0.28 nM and 0.24 nM and 0.36 nM | 16 nM and 18 nM and 15 nM |  |  | 

Further lines, with some results ahead:

Row | IC50 [1] | IC50 [3] | Compound | IC50 ([2]; Homo sapiens, HUVEC) [nM] | IC50 [4] [nM] | IC50 [2] [nM]
12 | 1.42 nM and 1.43 nM and 1.27 nM | 856 nM and > 100 nM and 616 nM and 556 nM and 657 nM and 682 nM | CNC(=O)n1c(C)cc2cc(Nc3ccnc4cc(C(=O)N5CCC[C@H]5CO)sc34)ccc21 [Example 2b, 5-(2-[(S)-2-(hydroxymethyl)pyrrolidine-1-carbonyl]thieno[3,2-b]pyridin-7-ylamino)-2-methylindole-1-carboxylic acid methylamide] |  |  | 
13 |  | 49 nM and 45 nM and 95 nM | CNC(=O)n1c(C)cc2cc(Nc3ccnc4cc(C(=O)N5CC[C@@H](OC)C5)sc34)ccc21 [Example 1l, 5-[2-(3R-Methoxy-pyrrolidine-1-carbonyl)-thieno[3,2-b]pyridin-7-ylamino]-2-methyl-indole-1-carboxylic acid methylamide] | 6.1 | 0.3 | 
14 | 0.36 nM and 0.28 nM and 0.32 nM | 57 nM and 96 nM and 61 nM and 41 nM | CNC(=O)n1c(C)cc2cc(Nc3ccnc4cc(-c5nccn5C)sc34)ccc21 [Example 2a, 5-(2-[1-methyl-1H-imidazol-2-yl]thieno[3,2-b]pyridin-7-ylamino)-2-methylindole-1-carboxylic acid methylamide] |  |  | 
15 | 0.35 nM and 0.16 nM and 0.167 nM | 5.8 nM | CNC(=O)n1c(C)cc2cc(Oc3ccnc4cc(C(=O)N5CC[C@@H](O)C5)sc34)ccc21 [Example 4n, 5-[2-(3R-Hydroxy-pyrrolidine-1-carbonyl)-thieno[3,2-b]pyridin-7-yloxy]-2-methyl-indole-1-carboxylic acid methylamide] |  | 0.042 | 
16 | 2.1 nM and 5.4 nM and 4.74 nM | > 1000 nM | Cc1cc2cc(Nc3ccnc4cc(C(=O)N5CC[C@H](O)C5)sc34)ccc2n1C(=O)NC1CC1 [Example 1k, 5-[2-(3S-Hydroxy-pyrrolidine-1-carbonyl)-thieno[3,2-b]pyridin-7-ylamino]-2-methyl-indole-1-carboxylic acid cyclopropylamide] | 26.6 |  | 
17 |  | 16.7 nM | CNC(=O)n1c(C)cc2cc(Oc3ccnc4cc(C(=O)N5CCC[C@@H]5COC)sc34)ccc21 [Example 4e, 5-[2-(2R-Methoxymethyl-pyrrolidine-1-carbonyl)-thieno[3,2-b]pyridin-7-yloxy]-2-methyl-indole-1-carboxylic acid methylamide] | 14 | 0.6 | 
18 |  | > 100 nM and 179 nM | Cc1cc2cc(Nc3ccnc4cc(C(=O)N5CCC[C@@H]5CO)sc34)ccc2n1C(=O)NC1CC1 [Example 1c, 5-[2-(2R-Hydroxymethyl-pyrrolidine-1-carbonyl)-thieno[3,2-b]pyridin-7-ylamino]-2-methyl-indole-1-carboxylic acid cyclopropylamide] | 158 | 0.7 | 
19 | 0.09 nM | 15 nM | C#CCNC(=O)n1c(C)cc2cc(Oc3ccnc4cc(C(=O)N5CC[C@@H](OC)C5)sc34)ccc21 [Example 4l, 5-[2-(3R-Methoxy-pyrrolidine-1-carbonyl)-thieno[3,2-b]pyridin-7-yloxy]-2-methyl-indole-1-carboxylic acid prop-2-ynylamide] |  | 0.176 | 
20 | 0.67 nM and 0.35 nM and 0.41 nM | 116 nM and > 100 nM and 97 nM | CNC(=O)n1c(C)cc2cc(Nc3ccnc4cc(C(=O)N5CCC[C@H]5COC)sc34)ccc21 [Example 1t, 5-(2-[(S)-2-(methoxymethyl)pyrrolidine-1-carbonyl]thieno[3,2-b]pyridin-7-ylamino)-2-methylindole-1-carboxylic acid methylamide] |  |  | 
21 | 0.58 nM and 0.98 nM | 10.5 nM | CNC(=O)n1c(C)cc2cc(Oc3ccnc4cc(C(=O)N5CC[C@H](OC)C5)sc34)ccc21 [Example 4g, 5-[2-(3S-Methoxy-pyrrolidine-1-carbonyl)-thieno[3,2-b]pyridin-7-yloxy]-2-methyl-indole-1-carboxylic acid methylamide] |  | 0.139 | 
22 | 0.116 nM and 0.34 nM and 0.21 nM | 19 nM | CO[C@H]1CCN(C(=O)c2cc3nccc(Oc4ccc5c(c4)cc(C)n5C(=O)NC4CC4)c3s2)C1 [Example 4h, 5-[2-(3S-Methoxy-pyrrolidine-1-carbonyl)-thieno[3,2-b]pyridin-7-yloxy]-2-methyl-indole-1-carboxylic acid cyclopropylamide] |  | 0.65 | 
23 | 0.149 nM | 14 nM | C#CCNC(=O)n1c(C)cc2cc(Oc3ccnc4cc(C(=O)N5CC[C@H](OC)C5)sc34)ccc21 [Example 4f, 5-[2-(3S-Methoxy-pyrrolidine-1-carbonyl)-thieno[3,2-b]pyridin-7-yloxy]-2-methyl-indole-1-carboxylic acid prop-2-ynylamide] |  | 0.057 | 
24 |  | 16.5 nM | CNC(=O)n1c(C)cc2cc(Oc3ccnc4cc(C(=O)N5CCC[C@H]5COC)sc34)ccc21 [Example 4a, 5-(2-[(S)-2-(methoxymethyl)pyrrolidine-1-carbonyl]thieno[3,2-b]pyridin-7-yloxy)-2-methylindole-1-carboxylic acid methylamide] | 33 | 0.2 | 34
